From patent US20090004660A1, “METHOD FOR DETECTING NEUROBLASTOMA AND ITS MALIGNANCY AND METHOD FOR SUPPRESSING THE SAME” (priority 2007, published 2009)
“Also recorded” adds a separate entry of the source.

Key:
Format in all cases: cell-based, human
PTGER2 gene = experiment: RT-PCR of PTGER2 gene expression in treated neuroblastoma cell lines lacking PTGER2 expression
Protocol: Moreover, in order to investigate whether or not the lowered expression of the PTGER2 gene was due to DNA methylation, neuroblastoma cell lines lacking expression of the PTGER2 gene were used and treated with 1 μM or 5 μM of 5-aza-dCyd, a demethylating reagent, for 5 days and/or 100 ng/ml of TSA, a deacetylation inhibitor, for 12 hours. RNA was extracted from each cell line and the PTGER2 gene expression thereof was examined by RT-PCR (FIG. 1C).

PTGDR gene = experiment: RT-PCR of PTGDR gene expression in treated neuroblastoma cell lines; conditions: three types of neuroblastoma cell lines, treatment with 5-aza-dCyd
[1] = system: CpG island of the PTGER2 gene; experiment: Methylation status of the PTGER2 CpG island in neuroblastoma cells cultured with a demethylating agent; conditions: neuroblastoma cells cultured in the presence of 5-aza-dC
GOTO and SJ-N-CG cells = experiment: WST cell viability assay in neuroblastoma cell lines; conditions: PTGER2 gene-nonexpressing cell lines (GOTO, SJ-N-CG); 0.01 mM, 0.1 mM, 1 mM for 72 hours
Protocol: Since the PTGER2 protein and G protein are coupled to be associated with increased intracellular cAMP concentration (Narumiya, et al., Physiol Rev, 79, 1193-1226, 1999), the association between intracellular cAMP concentration and proliferation of neuroblastoma was investigated. First, neuroblastoma cell lines lacking expression of the PTGER2 gene (GOTO and SJ-N-CG) and neuroblastoma cell lines expressing the PTGER2 gene (SJ-N-KP and KP-N-SIFA) were cultured in a growth medium with 0 mM, 0.01 mM, 0.1 mM, and 1 mM of 8-Br-cAMP for 72 hours. Then, the viability of these cells was detected by WST assay (FIG. 5).

**Q.** How did the PTGER2 gene expression (PTGER2 gene; 1 μM or 5 μM 5-aza-dCyd alone for 5 days) turn out when Nc1ncn([C@H]2C[C@H](O)[C@@H](CO)O2)c(=O)n1 [5-aza-dCyd, 5-azadeoxycytidine] was run?
**A.** restored

**Q.** What about the PTGER2 gene expression (PTGER2 gene; 1 μM or 5 μM 5-aza-dCyd alone for 5 days, listed as 5-aza-dC) of the same molecule?
**A.** successfully restored

**Q.** And the PTGDR gene expression (PTGDR gene)?
**A.** restored

**Q.** And the “demethylation of the CpG island of the PTGER2 gene” value [1]?
**A.** successfully demethylated

**Q.** For Nc1ncnc2c1nc(Br)n2[C@@H]1O[C@@H]2COP(=O)(O)O[C@H]2[C@H]1O [8-Br-cAMP], which “proliferation (cell viability by WST assay)” value (GOTO and SJ-N-CG cells) is on record?
**A.** suppressed

**Q.** How did the PTGER2 gene expression (PTGER2 gene; 100 ng/ml TSA alone for 12 hours) turn out when CC(/C=C/C(=O)NO)=C\[C@@H](C)C(=O)c1ccc(N(C)C)cc1 [TSA, Trichostatin A] was run?
**A.** restored; also recorded: increased level
